Test results reported in patent US20160375155A1, “Collagen Imaging Compositions” (Collagen Medical, LLC, priority 2015, published 2016).
Where two headings read alike, the source gives them in different places. Bridge positions count the residues as written; N and C are the ends. Square brackets hold non-standard residues; d marks the D form. Peptide text beside a SMILES is read from it. * marks the point of attachment. X1 = O=C(O)CN1CCN(CC(=O)O)CCN([C@H](CCC(=O)*)C(=O)O)CCN(CC(=O)O)CC1; Bip = N[C@@H](Cc1ccc(-c2ccccc2)cc1)C(=O)O

How the values were obtained:
[1] = Relaxivity in PBS (Bruker mq60, 60 MHz); format: physicochemical; details: pH 7.4 PBS at 1.4 T, 37° C.
Description: The relaxivity of Compound ID Nos. 1, 2 and 4 were determined in PBS at 37° C. using a Bruker mq60 spectrometer operating at 60 MHz (1.4 tesla). Samples were equilibrated at concentrations ranging from 0-200 μM for at least 30 minutes at 37° C. T1 was measured using an inversion recovery sequence. Relaxivities were calculated by subtracting the relaxation rate of the buffer […] and then dividing the result by the concentration of Compound.

human type I collagen = target: T1, human type I collagen (Homo sapiens, UniProt P02452+P08123); test: Collagen binding assay, dried human collagen plate; details: 37° C., pH 7.4; collagen 5 μM; fit to 1 binding site
T1 construct: purchased Advanced Biomatrix 5007-A
Description: 10 ml of a solution of 3 mg/ml of human type I collagen (VitroCol solution, Advanced Biomatrix, cat#5007-A) is dialyzed against 10 mM Phosphate (NaH2PO4), pH 4.2 at 4° C. with three changes of the dialysis buffer. The protein concentration is determined by liquid chromatography determination of hydroxyproline (P. Hutson, J. Chromatogr. B, 791 (2003) 427-430).
(§1) Ice-cold 1×PBS pH 10.8 is added to the collagen solution for a final collagen concentration of 10 μM, pH 7.4. Collagen solutions are gelled and dried down in the wells of a 96 well microtiter plate (Corning Polystyrene Flat Bottom, cat#3641). […] The final well content of gelled collagen is measured by determination of hydroxyproline and is around 180 μg/ml.
(§2) a serial dilution of 0.2 μM-30 μM of the peptide chelate is prepared in PBS, pH 7.4 (˜300 μL of solution for each concentration). […] The concentration of free, unbound compound in the sample supernatants and the concentration of compound in the reserved (total) sample are determined by ICP-MS (Agilent 7500, gadolinium concentration). The concentration of compound bound to collagen is determined as [bound]=[total]−[unbound].
(§3) The binding of compounds to human, rat and dog collagen (5 μM) was measured over the concentration range 0.2-5 μM of Comp ID Nos.: 1-4. […]

[2] = target: T2, rat collagen (acid soluble, type I, rat tail) (Rattus norvegicus, UniProt P02454+P02466); test: Collagen binding assay, dried rat collagen plate; details: 37° C., pH 7.4; collagen 5 μM; fit to 1 binding site
T2 construct: rat collagen (acid soluble, type I, rat tail, Millipore Inc, cat#08-115); purchased Millipore Inc 08-115; host or cells: rat tail
Description: 10 ml of a 3.79 mg/mL solution of rat collagen (acid soluble, type I, rat tail, Millipore Inc, cat#08-115) is dialyzed against 10 mM Phosphate (NaH2PO4), pH 4.2 at 4° C. with three changes of the dialysis buffer.
as §1, with “cat#3641). 70 μl of 10 μM collagen is aliquoted into each well in every other lane in the plate (48 wells) and the plate is incubated at 37° C. for 18 hours to form a gel and evaporate to dryness.” for “cat#3641).”
as §2, §3

[3] = target: Native canine Collagen Type I and III protein; test: Collagen binding assay, dried dog collagen plate; details: 37° C., pH 7.4; collagen 5 μM; fit to 1 binding site
Description: Canine collagen (Native canine Collagen Type I and III protein, YO protein AB, cat#739) is dissolved in 0.5 M acetic acid at 3.3 mg/ml by vortexing and shaking overnight at 4° C. The solution is then dialyzed against 10 mM Phosphate (NaH2PO4), pH 4.2 at 4° C. with three changes of the dialysis buffer.
Ice-cold 1×PBS pH 10.8 is added to the collagen solution for a final collagen concentration of 10 μM, pH 7.4. Collagen solutions are gelled and dried down in the wells of a 96 well microtiter plate (Corning Polystyrene Flat Bottom, cat#3641). 70 μl of 10 μM collagen is aliquoted into each well in every other lane in the plate (48 wells) and the plate is incubated at 37° C. for 18 hours to form a gel and evaporate to dryness. Ungelled collagen is removed by washing the collagen films with 200 μl 1×PBS pH 7.4 (four times, 15 min per wash). The thin collagen fibril film remains, coating the bottom of each well. After washing by PBS the plate is again dried at 37° C. for 2 hours and is stored at −20° C. The final well content of gelled collagen is measured by determination of hydroxyproline and is around 180 μg/ml.
a serial dilution of 0.2 μM-30 μM of the peptide chelate is prepared in PBS, pH 7.4 (˜300 μL of solution for each concentration). 90 μl of each concentration is also reserved in a HPLC glass vial as a sample to measure the total concentration. 140 μL of each dilution of peptide chelate is added to wells containing and non-containing collagen (control for nonspecific plastic binging). The plate is then incubated on a shaker table (300 rpm) for 2 hours at room temperature to allow the compound to bind. […] The concentration of free, unbound compound in the sample supernatants and the concentration of compound in the reserved (total) sample are determined by ICP-MS (Agilent 7500, gadolinium concentration). The concentration of compound bound to collagen is determined as [bound]=[total]−[unbound].
as §3

[4] = tested on: acute and chronic myocardial infarct (fibrosis); format: in vivo, canine; details: for CNR between infarct and blood: Compound ID No. 1 0.0075 mmol/kg, extracellular gadolinium 0.2 mmol/kg
Source text: An experimental protocol was developed to test the ability of Compound ID No. 1 to differentiate acute from chronic myocardial infarction in an in-vivo large animal (canine) model. In this model, early following acute myocardial infarction, pathologic fibrosis has not fully developed within the infarct zone (fibrosis-poor), whereas in chronic MI (˜8 weeks following MI), dense fibrosis fully replaced necrotic myocardium (fibrosis-rich).
In the myocardial fibrosis canine model, a vascular occluder was placed surgically around the left anterior descending coronary artery (LAD) to allow occlusion and reperfusion. Two animals were studied following acute MI and two additional animals were studied both following acute MI, and chronically at 8 weeks. The LAD vessel was completely occluded for 70-90 minutes and then released to allow reperfusion. The chest was sutured closed, and the animal was allowed to recover. Imaging was performed on a 3 T clinical scanner in an acute (<1 week, minimal fibrosis expected in acute necrosis) and chronic (8 weeks, healing complete, necrotic myocardium replaced by dense collagenous scar) time point after infarction. For each time point, the animals undergo 2 scans separated by 48 hours with conventional gadolinium contrast (0.2 mmol/kg GdDTPA) and Compound ID No. 1 (0.0075 mmol/kg).
Imaging was performed on a 3 T clinical scanner (Siemens Verio). Breath holding was achieved by temporarily turning off the animal ventilator, and all images were ECG gated. Standard short and long axis cine imaging was performed throughout the left ventricle to identify left ventricular function and regional wall motion abnormalities. Delayed enhancement imaging (segmented 2D inversion recovery gradient echo) was performed prior to and serially following Compound ID No. 1 administration. Two strategies were employed: (1) a fixed inversion time was chosen to null pre-contrast myocardium (TI˜650 ms), and (2) a variable inversion time set to null post-contrast myocardium as is performed in traditional delayed enhancement imaging.
After imaging, animals were euthanized and post mortem analysis of myocardium was performed. Tissue was assessed grossly by histopathologic staining with triphenyltetrazolium chloride for myocardial infarction, and microscopically with Masson's trichrome staining for fibrosis. Additionally quantitative tissue analysis for hydroxyproline was used to measure total collagen content in tissue and compared to tissue gadolinium concentration by inductively coupled plasma-mass spectrometry. MR data was analyzed quantitatively for conspicuity of infarction and image quality as well as contrast to noise ratio (CNR) for infarct-normal myocardium and infarct-blood.

myocardial collagen = details: rat MI model, healthy and infarcted heart
Description: Myocardial infarction was induced in Sprague Dawley rats by occlusion of the left anterior descending coronary artery followed by reperfusion. The rats were anesthetized with an intraperitoneal (i.p.) injection of 100 μg pentobarbital sodium per gram body weight and a thorocotamy was performed. The pericardium was removed and the left anterior artery was sutured with a 7.0 silk suture for 60 minutes after which reperfusion was established.
Animals were sacrificed at 60 minutes post-injection and the heart removed and sectioned for analysis.
The slope for this correlation is a measure of efficacy.

T2 sequence (P02454 152-1207 limits assumed): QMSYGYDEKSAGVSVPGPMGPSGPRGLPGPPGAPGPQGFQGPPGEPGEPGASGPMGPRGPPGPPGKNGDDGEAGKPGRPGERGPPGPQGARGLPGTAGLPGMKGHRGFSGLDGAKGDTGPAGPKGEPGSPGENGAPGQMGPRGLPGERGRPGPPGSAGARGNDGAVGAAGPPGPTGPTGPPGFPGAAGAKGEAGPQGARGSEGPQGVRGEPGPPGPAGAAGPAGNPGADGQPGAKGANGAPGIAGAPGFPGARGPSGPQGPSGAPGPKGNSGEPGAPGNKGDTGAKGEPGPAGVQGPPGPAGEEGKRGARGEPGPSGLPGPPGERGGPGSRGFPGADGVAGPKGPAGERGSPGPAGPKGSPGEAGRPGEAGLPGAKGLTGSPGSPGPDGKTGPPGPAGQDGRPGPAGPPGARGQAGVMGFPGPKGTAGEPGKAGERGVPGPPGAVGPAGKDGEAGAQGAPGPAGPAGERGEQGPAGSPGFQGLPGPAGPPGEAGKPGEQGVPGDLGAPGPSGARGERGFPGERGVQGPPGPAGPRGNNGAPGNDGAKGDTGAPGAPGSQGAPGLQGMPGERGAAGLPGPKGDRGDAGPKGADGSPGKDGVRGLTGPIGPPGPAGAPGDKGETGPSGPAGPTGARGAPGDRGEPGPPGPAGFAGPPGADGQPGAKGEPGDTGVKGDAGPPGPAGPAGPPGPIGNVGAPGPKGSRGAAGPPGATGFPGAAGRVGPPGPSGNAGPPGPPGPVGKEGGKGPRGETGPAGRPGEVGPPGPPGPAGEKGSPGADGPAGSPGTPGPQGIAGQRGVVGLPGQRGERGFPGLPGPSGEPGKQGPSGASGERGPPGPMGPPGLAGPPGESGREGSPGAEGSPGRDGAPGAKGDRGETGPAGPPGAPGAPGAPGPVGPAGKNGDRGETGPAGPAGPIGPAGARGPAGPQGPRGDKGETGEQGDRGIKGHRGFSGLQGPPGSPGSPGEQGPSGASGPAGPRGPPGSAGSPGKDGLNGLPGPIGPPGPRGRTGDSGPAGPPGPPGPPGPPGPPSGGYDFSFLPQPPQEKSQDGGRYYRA
T2 sequence (P02466 86-1125 limits assumed): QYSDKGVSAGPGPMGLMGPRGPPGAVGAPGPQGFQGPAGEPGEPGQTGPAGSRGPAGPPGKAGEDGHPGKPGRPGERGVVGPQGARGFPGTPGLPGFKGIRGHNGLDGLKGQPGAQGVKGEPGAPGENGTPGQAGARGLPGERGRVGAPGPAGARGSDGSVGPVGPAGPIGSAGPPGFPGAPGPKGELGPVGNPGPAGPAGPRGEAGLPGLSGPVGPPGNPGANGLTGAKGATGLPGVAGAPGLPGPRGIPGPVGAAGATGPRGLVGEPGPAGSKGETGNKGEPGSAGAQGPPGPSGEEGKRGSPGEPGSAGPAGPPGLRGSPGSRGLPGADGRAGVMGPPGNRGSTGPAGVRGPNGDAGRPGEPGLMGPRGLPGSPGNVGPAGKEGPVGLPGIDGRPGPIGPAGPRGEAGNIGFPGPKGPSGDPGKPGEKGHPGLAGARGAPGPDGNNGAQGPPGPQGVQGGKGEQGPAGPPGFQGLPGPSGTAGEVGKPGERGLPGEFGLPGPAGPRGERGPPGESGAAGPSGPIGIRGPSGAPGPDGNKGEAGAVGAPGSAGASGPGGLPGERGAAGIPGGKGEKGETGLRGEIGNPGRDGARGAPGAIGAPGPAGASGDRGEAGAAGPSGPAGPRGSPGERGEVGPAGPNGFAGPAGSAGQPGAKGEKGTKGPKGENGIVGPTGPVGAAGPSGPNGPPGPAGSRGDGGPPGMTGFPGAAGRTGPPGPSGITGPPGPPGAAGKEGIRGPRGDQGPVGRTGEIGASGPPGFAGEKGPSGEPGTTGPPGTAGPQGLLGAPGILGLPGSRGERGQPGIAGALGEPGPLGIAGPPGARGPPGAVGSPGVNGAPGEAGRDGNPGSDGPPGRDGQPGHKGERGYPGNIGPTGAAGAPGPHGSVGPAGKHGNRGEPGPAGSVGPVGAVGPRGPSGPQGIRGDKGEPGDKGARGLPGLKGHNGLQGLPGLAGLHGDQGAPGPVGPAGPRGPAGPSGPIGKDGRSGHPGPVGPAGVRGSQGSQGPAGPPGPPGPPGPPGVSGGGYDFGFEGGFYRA
T1 sequence (P02452 162-1218 limits assumed): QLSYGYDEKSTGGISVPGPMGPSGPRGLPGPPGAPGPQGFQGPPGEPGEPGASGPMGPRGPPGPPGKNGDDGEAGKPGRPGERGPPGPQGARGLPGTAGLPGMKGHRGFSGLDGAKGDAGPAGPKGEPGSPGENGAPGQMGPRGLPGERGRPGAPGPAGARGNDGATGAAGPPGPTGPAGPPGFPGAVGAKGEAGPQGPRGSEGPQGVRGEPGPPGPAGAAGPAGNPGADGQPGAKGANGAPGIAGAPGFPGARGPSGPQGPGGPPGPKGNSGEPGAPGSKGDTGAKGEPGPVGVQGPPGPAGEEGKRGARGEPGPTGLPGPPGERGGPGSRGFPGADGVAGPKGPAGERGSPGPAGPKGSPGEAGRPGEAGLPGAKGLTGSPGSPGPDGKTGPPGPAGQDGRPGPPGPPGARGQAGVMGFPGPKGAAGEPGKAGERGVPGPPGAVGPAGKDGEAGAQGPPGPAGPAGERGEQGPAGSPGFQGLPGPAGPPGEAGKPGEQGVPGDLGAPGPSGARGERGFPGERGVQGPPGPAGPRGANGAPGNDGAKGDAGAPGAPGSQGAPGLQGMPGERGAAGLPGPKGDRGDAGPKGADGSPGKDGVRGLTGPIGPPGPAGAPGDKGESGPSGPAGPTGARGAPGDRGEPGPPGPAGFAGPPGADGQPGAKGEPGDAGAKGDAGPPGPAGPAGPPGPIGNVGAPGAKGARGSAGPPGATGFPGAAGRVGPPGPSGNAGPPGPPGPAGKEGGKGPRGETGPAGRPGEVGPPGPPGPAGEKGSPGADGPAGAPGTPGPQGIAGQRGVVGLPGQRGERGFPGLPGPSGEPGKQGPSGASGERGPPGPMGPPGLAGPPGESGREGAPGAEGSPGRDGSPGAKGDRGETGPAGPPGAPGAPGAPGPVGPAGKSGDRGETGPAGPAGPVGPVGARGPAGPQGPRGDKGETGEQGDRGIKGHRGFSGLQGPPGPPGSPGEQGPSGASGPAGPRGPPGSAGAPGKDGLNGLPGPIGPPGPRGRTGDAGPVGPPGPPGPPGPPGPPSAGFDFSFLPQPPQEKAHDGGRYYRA
T1 sequence (P08123 80-1119 limits assumed): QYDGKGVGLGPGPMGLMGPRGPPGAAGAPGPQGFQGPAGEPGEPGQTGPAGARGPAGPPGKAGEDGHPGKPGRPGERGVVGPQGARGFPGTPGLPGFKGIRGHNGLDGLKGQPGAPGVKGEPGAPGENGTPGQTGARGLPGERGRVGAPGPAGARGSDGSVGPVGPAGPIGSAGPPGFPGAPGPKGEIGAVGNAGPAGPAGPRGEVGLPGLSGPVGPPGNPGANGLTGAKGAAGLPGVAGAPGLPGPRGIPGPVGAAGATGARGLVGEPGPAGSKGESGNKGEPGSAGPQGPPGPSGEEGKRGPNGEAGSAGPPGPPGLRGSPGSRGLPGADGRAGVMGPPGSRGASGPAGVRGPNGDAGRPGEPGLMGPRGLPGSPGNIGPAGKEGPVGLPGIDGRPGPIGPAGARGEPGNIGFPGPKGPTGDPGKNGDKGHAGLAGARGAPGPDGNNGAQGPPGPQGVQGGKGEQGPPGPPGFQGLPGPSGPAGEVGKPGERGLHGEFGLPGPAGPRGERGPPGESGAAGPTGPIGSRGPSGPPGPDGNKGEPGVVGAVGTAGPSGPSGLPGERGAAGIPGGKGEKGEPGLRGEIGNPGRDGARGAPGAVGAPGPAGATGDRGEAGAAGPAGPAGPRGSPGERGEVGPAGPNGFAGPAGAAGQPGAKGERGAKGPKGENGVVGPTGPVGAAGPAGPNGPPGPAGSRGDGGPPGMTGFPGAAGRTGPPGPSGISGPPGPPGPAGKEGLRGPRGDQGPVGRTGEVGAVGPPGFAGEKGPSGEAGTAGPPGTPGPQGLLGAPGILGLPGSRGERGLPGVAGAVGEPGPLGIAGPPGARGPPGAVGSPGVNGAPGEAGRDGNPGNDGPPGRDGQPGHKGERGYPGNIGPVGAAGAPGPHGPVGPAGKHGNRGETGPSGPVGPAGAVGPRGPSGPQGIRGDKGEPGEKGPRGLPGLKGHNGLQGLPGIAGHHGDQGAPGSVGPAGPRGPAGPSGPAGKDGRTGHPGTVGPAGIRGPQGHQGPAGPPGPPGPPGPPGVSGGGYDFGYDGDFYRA

## CC(C)C[C@H](NC(=O)[C@@H]1CSSC[C@H](NC(=O)[C@H](Cc2c[nH]cn2)NC(=O)[C@H](Cc2c[nH]c3ccccc23)NC(=O)[C@H](CCCCNC(=O)CC[C@H](C(=O)O)N2CCN(CC(=O)O)CCN(CC(=O)O)CCN(CC(=O)O)CC2)NC(=O)CC[C@H](C(=O)O)N2CCN(CC(=O)O)CCN(CC(=O)O)CCN(CC(=O)O)CC2)C(=O)N[C@@H]([C@@H](C)O)C(=O)N[C@@H]([C@@H](C)O)C(=O)N[C@@H](CCCCNC(=O)CC[C@H](C(=O)O)N2CCN(CC(=O)O)CCN(CC(=O)O)CCN(CC(=O)O)CC2)C(=O)N[C@@H](Cc2ccccc2)C(=O)N2CCC[C@H]2C(=O)N[C@@H](Cc2c[nH]cn2)C(=O)N[C@@H](Cc2c[nH]cn2)C(=O)N[C@@H](Cc2ccc(O)cc2)C(=O)N1)C(=O)N[C@@H](Cc1ccc(O)cc1)C(=O)N[C@@H](Cc1ccc(-c2ccccc2)cc1)C(N)=O [Compound ID No. 2] (X1-K(X1)WHCTTK(X1)FPHHYCLY[Bip]-NH2; disulfide 4-13)
[1]
  R1 (relaxivity): 42.9 mM⁻¹ s⁻¹
Human type I collagen
  Kd: 4.9 µM
[2]
  Kd: 20.6 µM
[3]
  Kd: 4.9 µM
[4]; chronic myocardial infarction, FIG. 25b
  MR image uptake in scar vs healthy myocardium: early uptake
Myocardial collagen
  calculated slope, hydroxyproline vs. gadolinium concentration: 3184

## O=C([O-])CN(CCN(CC(=O)[O-])CC(=O)O)CCN(CC(=O)[O-])CC(=O)O.[Gd+3] [extracellular gadolinium, gadolinium diethylenetriaminepentaacetate, reference compound]
[4]; acute MI
  CNR between infarct and blood: 6.3±3.4
[4]; chronic MI (8 weeks)
  CNR between infarct and blood: 5±1.3

## CC(C)[C@H](NC(=O)[C@@H]1CSSC[C@H](NC(=O)[C@H](Cc2c[nH]cn2)NC(=O)[C@H](Cc2c[nH]c3ccccc23)NC(=O)[C@H](CCCCNC(=O)CC[C@H](C(=O)O)N2CCN(CC(=O)O)CCN(CC(=O)O)CCN(CC(=O)O)CC2)NC(=O)CC[C@H](C(=O)O)N2CCN(CC(=O)O)CCN(CC(=O)O)CCN(CC(=O)O)CC2)C(=O)N[C@@H](Cc2ccc(O)cc2)C(=O)N[C@@H]([C@@H](C)O)C(=O)N[C@@H](CCCCNC(=O)CC[C@H](C(=O)O)N2CCN(CC(=O)O)CCN(CC(=O)O)CCN(CC(=O)O)CC2)C(=O)N[C@@H](Cc2ccccc2)C(=O)N2CCC[C@H]2C(=O)N[C@@H](Cc2c[nH]cn2)C(=O)N[C@@H](Cc2c[nH]cn2)C(=O)N[C@@H](Cc2ccc(O)cc2)C(=O)N1)C(=O)N[C@@H](Cc1ccc(O)cc1)C(=O)N[C@@H](Cc1ccc(-c2ccccc2)cc1)C(N)=O [Compound ID No. 4] (X1-K(X1)WHCYTK(X1)FPHHYCVY[Bip]-NH2; disulfide 4-13)
[1]
  R1 (relaxivity): 51.2 mM⁻¹ s⁻¹
Human type I collagen
  Kd: 9.6 µM
[2]
  Kd: 4.6 µM
[3]
  Kd: 2 µM
Myocardial collagen
  calculated slope, hydroxyproline vs. gadolinium concentration: 3057
